Read-outs that look alike come from different tables or passages of the source.
Columns and labels:
human 5-HT6 receptor = human 5-HT6 receptor (Homo sapiens (Human), UniProt P50406); test: radioligand binding assay (SPA format), [N-methyl-3H]-LSD; settings: read-out: human 5HT6 Ki, human 5-HT6 receptor membranes, 10 nM [3H]-LSD
5HT6 receptor = 5HT6 receptor (Rattus norvegicus (Rat), UniProt P31388); test: ex vivo receptor occupancy measurements; type: in vivo; settings: oral dosing at 30 mg/kg, Sprague-Dawley rats
Chain of 5HT6 receptor (P31388 whole entry): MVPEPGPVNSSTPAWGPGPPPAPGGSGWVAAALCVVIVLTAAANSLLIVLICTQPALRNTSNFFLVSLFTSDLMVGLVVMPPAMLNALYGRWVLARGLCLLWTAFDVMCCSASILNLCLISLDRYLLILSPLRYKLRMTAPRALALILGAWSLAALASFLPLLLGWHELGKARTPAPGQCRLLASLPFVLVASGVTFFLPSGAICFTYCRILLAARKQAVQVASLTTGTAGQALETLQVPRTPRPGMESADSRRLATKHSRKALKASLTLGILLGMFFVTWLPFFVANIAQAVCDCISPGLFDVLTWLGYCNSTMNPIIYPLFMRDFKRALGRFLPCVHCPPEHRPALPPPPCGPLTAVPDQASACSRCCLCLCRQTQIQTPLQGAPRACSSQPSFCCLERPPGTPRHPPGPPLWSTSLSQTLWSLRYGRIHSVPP
Method: This table illustrates representative compounds tested for 5HT6 affinity in the human binding assay. […] Example 158 had 42% occupancy of the 5HT6 receptor after oral dosing at 30 mg/kg using ex vivo receptor occupancy measurements in Sprague-Dawley rats.

Chain of human 5-HT6 receptor (P50406 whole entry): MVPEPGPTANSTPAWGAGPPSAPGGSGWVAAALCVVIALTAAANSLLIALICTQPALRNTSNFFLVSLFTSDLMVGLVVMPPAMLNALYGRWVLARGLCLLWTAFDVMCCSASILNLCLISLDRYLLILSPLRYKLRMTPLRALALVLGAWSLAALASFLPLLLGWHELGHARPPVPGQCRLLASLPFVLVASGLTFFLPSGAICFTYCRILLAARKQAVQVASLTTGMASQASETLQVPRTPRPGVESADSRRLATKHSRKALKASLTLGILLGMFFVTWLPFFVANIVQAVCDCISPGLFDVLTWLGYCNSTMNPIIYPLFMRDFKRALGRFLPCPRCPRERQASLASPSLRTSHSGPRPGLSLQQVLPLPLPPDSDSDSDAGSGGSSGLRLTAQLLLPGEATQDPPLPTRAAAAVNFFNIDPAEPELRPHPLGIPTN

Row | SMILES | Ki (human 5-HT6 receptor) | melting point | Ki (human 5-HT6 receptor; hydrochloride) | receptor occupancy at 30 mg/kg (5HT6 receptor)
1 | Cc1ccccc1S(=O)(=O)c1ccc2c(c1)c1c(n2C)CC2CCC1N2.Cl (centres unmarked) [Example 52, 2-(2-Methylphenyl)sulfonyl-5-methyl-5,6,7,8,9,10-hexahydro-7,10-epiminocyclohepta[b]indole hydrochloride] | 11 nM | 186 to 188 °C | – | –
2 | Cl.Cn1c2c(c3cc(S(=O)(=O)c4cc(Cl)cc(Cl)c4)ccc31)C1CCC(C2)N1 (centres unmarked) [Example 54, 2-(3,5-Dichlorophenyl)sulfonyl-5-methyl-5,6,7,8,9,10-hexahydro-7,10-epiminocyclohepta[b]indole hydrochloride] | 10 nM | 190 to 195 °C | – | –
3 | Cl.Cn1c2c(c3cc(S(=O)(=O)c4cc(F)cc(F)c4)ccc31)C1CCC(C2)N1 (centres unmarked) [Example 55, 2-(3,5-Difluorophenyl)sulfonyl-5-methyl-5,6,7,8,9,10-hexahydro-7,10-epiminocyclohepta[b]indole hydrochloride] | 8.5 nM | 230 to 235 °C (dec.) | – | –
4 | Cl.Cn1c2c(c3cc(S(=O)(=O)c4cncc(Cl)c4)ccc31)C1CCC(C2)N1 (centres unmarked) [Example 58, 2-[3-(5-Chloro)-pyridine]sulfonyl-5-methyl-5,6,7,8,9,10-hexahydro-7,10-epiminocyclohepta[b]indole hydrochloride] | 44 nM | 202 to 205 °C (dec.) | – | –
5 | Cl.Cn1c2c(c3cc(S(=O)(=O)c4cncc(F)c4)ccc31)C1CCC(C2)N1 (centres unmarked) [Example 59, 2-[3-(5-Fluoro)-pyridine]sulfonyl-5-methyl-5,6,7,8,9,10-hexahydro-7,10-epiminocyclohepta[b]indole hydrochloride] | 139 nM | 212 to 215 °C | – | –
6 | Cl.Cn1c2c(c3cc(S(=O)(=O)c4ccccn4)ccc31)C1CCC(C2)N1 (centres unmarked) [Example 60, 2-(2-Pyridine)sulfonyl-5-methyl-5,6,7,8,9,10-hexahydro-7,10-epiminocyclohepta[b]indole hydrochloride] | 193 nM | 222 to 225 °C | – | –
7 | Cl.Cn1c2c(c3cc(S(=O)(=O)c4cccnc4)ccc31)C1CCC(C2)N1 (centres unmarked) [Example 61, 2-(3-Pyridine)sulfonyl-5-methyl-5,6,7,8,9,10-hexahydro-7,10-epiminocyclohepta[b]indole hydrochloride] | 156 nM | 226 to 228 °C | – | –
8 | Cl.Cn1c2c(c3cc(S(=O)(=O)n4cc(Cl)c5ccccc54)ccc31)C1CCC(C2)N1 (centres unmarked) [Example 67, 2-[1-(3-Chloro)-indole]sulfonyl-5-methyl-5,6,7,8,9,10-hexahydro-7,10-epiminocyclohepta[b]indole hydrochloride] | 4.1 nM | 204 to 206 °C | – | –
9 | Cc1cn(S(=O)(=O)c2ccc3c(c2)c2c(n3C)CC3CCC2N3)c2ccccc12.Cl (centres unmarked) [Example 68, 2-[1-(3-Methyl)-indole]sulfonyl-5-methyl-5,6,7,8,9,10-hexahydro-7,10-epiminocyclohepta[b]indole hydrochloride] | – | 212 to 215 °C | 1.2 nM | –
10 | CN1C2CCC1c1c(n(C)c3ccc(S(=O)(=O)c4ccsc4)cc13)C2.Cl (centres unmarked) [Example 70, 2-(3-thienyl)sulfonyl-5-methyl-5,6,7,8,9,10-hexahydro-7,10-N-methyl-epiminocyclohepta[b]indole hydrochloride] | 8.2 nM | 238 to 240 °C | – | –
11 | Cc1cc(S(=O)(=O)c2ccccc2)cc2c3c(n(C)c12)CC1CCC3N1.Cl (centres unmarked) [Example 71, 2-Phenylsulfonyl-4,5-dimethyl-5,6,7,8,9,10-hexahydro-7,10-epiminocyclohepta[b]indole hydrochloride] | 3.3 nM | 244 to 248 °C | – | –
12 | Cc1cc(S(=O)(=O)c2cccc(C(F)(F)F)c2)cc2c3c(n(C)c12)CC1CCC3N1.Cl (centres unmarked) [Example 75, 2-(3-Trifluoromethyl-phenyl)sulfonyl-4,5-dimethyl-5,6,7,8,9,10-hexahydro-7,10-epiminocyclohepta[b]indole hydrochloride] | 3.6 nM | 227 to 229 °C | – | –
13 | Cc1cc(S(=O)(=O)c2cccc(OC(F)(F)F)c2)cc2c3c(n(C)c12)CC1CCC3N1.Cl (centres unmarked) [Example 76, 2-(3-Trifluoromethoxy-phenyl)sulfonyl-4,5-dimethyl-5,6,7,8,9,10-hexahydro-7,10-epiminocyclohepta[b]indole hydrochloride] | 6.9 nM | 220 to 222 °C | – | –
14 | Cc1cc(S(=O)(=O)c2ccc(N)cc2)cc2c3c(n(C)c12)CC1CCC3N1.Cl (centres unmarked) [Example 77, 2-(4-Amino-phenyl)sulfonyl-4,5-dimethyl-5,6,7,8,9,10-hexahydro-7,10-epiminocyclohepta[b]indole hydrochloride] | 4.9 nM | 244 to 246 °C | – | –
15 | Cc1cc(S(=O)(=O)c2cncnc2)cc2c3c(n(C)c12)CC1CCC3N1.Cl (centres unmarked) [Example 78, 2-(5-Pyrimidine)sulfonyl-4,5-dimethyl-5,6,7,8,9,10-hexahydro-7,10-epiminocyclohepta[b]indole] | 794 nM | 226 to 228 °C | – | –
16 | Cl.Cn1c2c(c3cc(S(=O)(=O)c4ccccc4)cc(F)c31)C1CCC(C2)N1 (centres unmarked) [Example 81, 2-(Phenylsulfonyl)-4-fluoro-5-methyl-5,6,7,8,9,10-hexahydro-7,10-epiminocyclohepta[b]indole hydrochloride] | 13 nM | 251 to 256 °C (dec.) | – | –
17 | Cl.Cn1c2c(c3cc(S(=O)(=O)c4ccccc4)cc(Cl)c31)C1CCC(C2)N1 (centres unmarked) [Example 82, 2-Phenylsulfonyl-4-chloro-5-methyl-5,6,7,8,9,10-hexahydro-7,10-epiminocyclohepta[b]indole hydrochloride] | 22 nM | 258 to 264 °C (dec.) | – | –
18 | CCOc1cc(S(=O)(=O)c2ccccc2)cc2c3c(n(C)c12)CC1CCC3N1.Cl (centres unmarked) [Example 84, 2-Phenylsulfonyl-4-ethoxy-5-methyl-5,6,7,8,9,10-hexahydro-7,10-epiminocyclohepta[b]indole hydrochloride] | – | 182 to 184 °C | 1 nM | –
19 | Cl.Cn1c2c(c3cc(S(=O)(=O)c4ccccc4)cc(OCc4ccccc4)c31)C1CCC(C2)N1 (centres unmarked) [Example 86, 2-Phenylsulfonyl-4-benzyloxy-5-methyl-5,6,7,8,9,10-hexahydro-7,10-epiminocyclohepta[b]indole hydrochloride] | 14 nM | 178 to 180 °C | – | –
20 | CC(C)n1c2c(c3cc(S(=O)(=O)c4ccccc4)ccc31)C1CCC(C2)N1.Cl (centres unmarked) [Example 87, 2-Phenylsulfonyl-5-isopropyl-5,6,7,8,9,10-hexahydro-7,10-epiminocyclohepta[b]indole hydrochloride] | – | 260 to 265 °C | 350 nM | –
21 | Cl.O=S(=O)(c1ccccc1)c1ccc2c(c1)c1c(n2-c2ccccc2)CC2CCC1N2 (centres unmarked) [Example 88, 2-Phenylsulfonyl-5-phenyl-5,6,7,8,9,10-hexahydro-7,10-epiminocyclohepta[b]indole hydrochloride] | 350 nM | 195 to 200 °C | – | –
22 | Cl.O=S(=O)(c1ccccc1)c1ccc2c(c1)c1c(n2CCO)CC2CCC1N2 (centres unmarked) [Example 89, 2-Phenylsulfonyl-5-(2-hydroxy)ethyl-5,6,7,8,9,10-hexahydro-7,10-epiminocyclohepta[b]indole hydrochloride] | 432 nM | 185 to 190 °C | – | –
23 | CCn1c2c(c3cc(S(=O)(=O)c4ccccc4)ccc31)C1CCC(C2)N1.Cl (centres unmarked) [Example 90, 2-Phenylsulfonyl-5-ethyl-5,6,7,8,9,10-hexahydro-7,10-epiminocyclohepta[b]indole hydrochloride] | 52 nM | 200 to 204 °C (dec.) | – | –
24 | Cl.Cn1c2c(c3ccc(S(=O)(=O)c4ccccc4)cc31)C1CCC(C2)N1 (centres unmarked) [Example 91, 3-Phenylsulfonyl-5-methyl-5,6,7,8,9,10-hexahydro-7,10-epiminocyclohepta[b]indole hydrochloride] | 115 nM | 252 to 256 °C | – | –
25 | Cn1c2c(c3cc(S(=O)(=O)c4cccc(Cl)c4)ccc31)C1CCC(C2)N1 (centres unmarked) [Example 158] | 1.9 nM | – | – | 42%

Source: patent publication US8575186B2, “Epiminocycloalkyl[b] indole derivatives as serotonin sub-type 6 (5-HT6) modulators and uses thereof” (Albany Molecular Research, Inc., priority 2009, dated 2013)
